Measured values taken from patent US5962502A, “Polyamidic acid derivatives with antigastrin activity, a method for their preparation, and their pharmaceutical use” (priority 1993, dated 1999).

Legend:
[1] = molecular target: T1, central CCK-B receptor (Cavia porcellus, UniProt H0VZC5); experiment: Inhibition of the binding of [3-H][N-methyl-N-leucine]CCK-8 to guinea-pig cortical membranes; settings: for times more active than the corresponding diastereoisomer at the carbon atom (**): binding, guinea-pig cortex; for IC50: 150 minutes at 25° C.
T1 construct: Cerebral cortices of male white guinea-pigs were thus used; from tissue; host or cells: cerebral cortex membranes of male white guinea-pigs
T1 sequence (H0VZC5 1-426): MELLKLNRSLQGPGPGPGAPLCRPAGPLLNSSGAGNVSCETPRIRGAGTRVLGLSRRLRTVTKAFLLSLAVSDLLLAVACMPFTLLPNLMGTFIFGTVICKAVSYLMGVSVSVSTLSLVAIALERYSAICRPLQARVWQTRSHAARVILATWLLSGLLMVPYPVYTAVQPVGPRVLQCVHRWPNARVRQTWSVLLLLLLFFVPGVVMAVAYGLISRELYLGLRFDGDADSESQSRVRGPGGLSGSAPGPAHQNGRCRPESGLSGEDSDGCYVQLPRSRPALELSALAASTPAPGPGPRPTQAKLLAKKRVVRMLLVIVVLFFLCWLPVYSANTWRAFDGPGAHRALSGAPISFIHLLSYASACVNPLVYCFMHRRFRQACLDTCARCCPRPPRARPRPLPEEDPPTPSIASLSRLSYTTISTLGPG
Method in brief: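 Male guinea-pig cerebral cortex membranes (about 300 mcg protein/ml) incubated with non-sulphated [3-H]-labelled CCK-8 tracer and compound 150 minutes at 25° C. Pellet radioactivity counted by liquid scintillation; nonspecific binding defined with 5.10^-6 M CCK-8.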

[2] = molecular target: T2, CCK-A (Cavia porcellus, UniProt Q63931); experiment: Anti-CCK-A activity on guinea-pig gall bladder stimulated in vitro by CCK-8; settings: for Ratio I/II (CCK-A IC50 / CCK-B IC50): gall bladder IC50 over gastric mucous cells IC50; for IC50: guinea-pig gall bladder in vitro, CCK-8 10 ng/ml, read-out: CCK-A-antagonistic activity IC50 (I)
T2 construct: A longitudinal strip of guinea-pig gall-bladder was put in a bath for isolated organs; from tissue; host or cells: guinea-pig gall bladder longitudinal strip
T2 sequence (Q63931 1-430): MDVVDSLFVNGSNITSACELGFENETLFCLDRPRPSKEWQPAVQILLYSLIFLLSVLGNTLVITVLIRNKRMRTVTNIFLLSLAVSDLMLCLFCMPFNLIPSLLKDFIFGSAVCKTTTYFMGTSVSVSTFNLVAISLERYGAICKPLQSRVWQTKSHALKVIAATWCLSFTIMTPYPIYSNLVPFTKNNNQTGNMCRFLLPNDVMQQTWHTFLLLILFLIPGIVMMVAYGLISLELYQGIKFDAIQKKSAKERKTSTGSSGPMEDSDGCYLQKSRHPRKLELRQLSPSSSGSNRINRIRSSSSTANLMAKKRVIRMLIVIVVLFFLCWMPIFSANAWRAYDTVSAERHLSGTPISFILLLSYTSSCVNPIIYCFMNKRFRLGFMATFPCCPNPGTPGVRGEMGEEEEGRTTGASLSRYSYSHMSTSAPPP
Procedure: The experimental model used was guinea-pig gall bladder stimulated in vitro by CCK-8, with the use of lorglumide as the reference standard. A longitudinal strip of guinea-pig gall-bladder was put in a bath for isolated organs in the presence of Krebs buffer at a temperature of 32° C., with continuous oxygenation with an oxygen-CO2 mixture (95-[…]). The isometric contractions were detected by means of a force transducer and recorded.

times more active than the corresponding diastereoisomer at the carbon atom (**) [1]	IC50 ([1]; guinea-pig cortical membranes) [nM]	Ratio I/II (CCK-A IC50 / CCK-B IC50) [2]	IC50 [2] [nM]	inhibition of the binding of [N-methyl-N-leucine]CCK-8, result in words ([1]; guinea-pig cortical membranes)	Compound
about 5 times	150	108	5400	–	O=C(CC[C@@H](NC(=O)c1cc(Cl)cc(Cl)c1)C(=O)N1CCC2(CCCC2)CC1)N[C@H](Cc1ccccc1)C(=O)O [Compound 9, (R,R)-1[(1-carboxy-2-phenylethyl)amino]-1 oxo-5-(8-azaspiro[4.5]decan-8-yl)-4-(3,5-dichloro-benzoylamino)-5-oxopentanoic acid]
about 5 times	40	940	9400	potent inhibitors	O=C(CC[C@@H](NC(=O)c1cc(Cl)cc(Cl)c1)C(=O)N1CCC2(CCCC2)CC1)N[C@H](Cc1c[nH]c2ccccc12)C(=O)O [Compound 21]
